Publication PMC11879040, “Advancing systemic toxicity risk assessment: Evaluation of a NAM-based toolbox approach” (Toxicological Sciences, 2024)
Where two headings read alike, the source gives them in different places.

Key:
[1] = biological target: T1, Estrogen receptor, ER1 (h) (Homo sapiens, UniProt P03372); experiment: IPP ER1 coactivator recruitment (antagonist); format: biochemical; settings: estriol
T1 construct: purchased Eurofins Cerep (SafetyScreen44-based IPP panel)
T1 sequence (P03372 1-595): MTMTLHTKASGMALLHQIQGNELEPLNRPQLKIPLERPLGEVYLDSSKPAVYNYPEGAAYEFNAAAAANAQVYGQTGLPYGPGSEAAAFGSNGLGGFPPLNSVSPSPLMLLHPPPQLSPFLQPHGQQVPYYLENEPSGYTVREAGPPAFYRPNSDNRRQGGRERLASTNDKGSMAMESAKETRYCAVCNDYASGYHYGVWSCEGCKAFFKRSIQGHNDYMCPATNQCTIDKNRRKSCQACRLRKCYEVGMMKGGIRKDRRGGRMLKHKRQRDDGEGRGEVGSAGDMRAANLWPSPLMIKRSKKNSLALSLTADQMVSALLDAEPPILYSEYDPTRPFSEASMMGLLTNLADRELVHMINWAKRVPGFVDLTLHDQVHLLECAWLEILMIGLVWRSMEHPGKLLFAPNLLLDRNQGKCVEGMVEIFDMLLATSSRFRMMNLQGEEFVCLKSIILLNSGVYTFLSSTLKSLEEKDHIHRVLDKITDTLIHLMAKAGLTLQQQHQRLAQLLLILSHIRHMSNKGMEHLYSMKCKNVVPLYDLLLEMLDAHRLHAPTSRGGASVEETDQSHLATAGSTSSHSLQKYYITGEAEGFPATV

[2] = biological target: Kappa-type opioid receptor OPRK1 (h) (Homo sapiens, UniProt P41145); settings: control U 50488
[3] = biological target: cGMP-inhibited 3',5'-cyclic phosphodiesterase A, PDE3A (h) (Homo sapiens, UniProt Q14432); experiment: IPP PDE3A enzymatic activity; format: biochemical; settings: control milrinone
HepaRG cells = experiment: High-throughput transcriptomics (HTTr, TempO-Seq), HepaRG, 24 h; format: cell-based, human; settings: HepaRG; for pod_httr_bifrost PoD: HTTr BIFROST PoD; for podl_path_minbmd PoD: HTTr minimum pathway BMD(L)
Method: HepG2, HepaRG, and MCF7 cells were treated with each compound for 24 h across a dose range of 7 concentrations and lysed using TempO-Seq lysis buffer (BioSpyder Technologies, proprietary kit, see [Middleton et al. 2022] for method details). Sequencing was performed using TempO-Seq (BioClavis) version 2 of the human whole transcriptome panel and analyzed as described previously in Middleton et al.

[4] = biological target: Beta-1 adrenergic receptor, ADRB1 (h) (Homo sapiens, UniProt P08588); settings: control atenolol
[5] = biological target: Prostaglandin G/H synthase 1, PTGS1(h) (Homo sapiens, UniProt P23219); experiment: IPP PTGS1 enzymatic activity; format: biochemical; settings: control Diclofenac
[6] = biological target: T1, Estrogen receptor, ER1 (h); experiment: IPP ER1 coactivator recruitment (agonist); format: biochemical; settings: estriol
[7] = biological target: cAMP-specific 3',5'-cyclic phosphodiesterase 4D, PDE4D (h) (Homo sapiens, UniProt Q08499); experiment: IPP PDE4D enzymatic activity; format: biochemical; settings: control Ro 20-1724
[8] = biological target: Cannabinoid receptor 1, CNR1 (h) (Homo sapiens, UniProt P21554); format: binding; settings: control CP 55940
[9] = biological target: Tyrosine-protein kinase Lck, LCK (h) (Homo sapiens, UniProt P06239); experiment: IPP LCK enzymatic activity; format: biochemical; settings: IPP screening at 10 uM; control staurosporine
[10] = biological target: Carbonic anhydrase II, CA2 (h) (Homo sapiens, UniProt P00918); experiment: IPP CA2 enzymatic activity; format: biochemical; settings: 10 uM; control acetazolamide
[11] = biological target: T2, Muscarinic acetylcholine receptor M3, CHRM3 (h) (Homo sapiens, UniProt P20309); format: binding; settings: 10 uM; ligand/control 4-DAMP
T2 construct: purchased Eurofins Cerep (SafetyScreen44-based IPP panel)

HepG2 cells = experiment: Cell stress panel (CSP), 24 h, 8 concentrations, BIFROST global PoD; format: cell-based
Method: Compounds were tested using the previously developed cell stress panel ([Hatherell et al. 2020]) and the expanded biomarker panel outlined in Middleton et al. HepG2 cells were treated with all compounds for 24 h across 8 concentrations prior to biomarker analysis. The same plate layout and number of replicates (3 biological and 2 technical) were used as previously for each assay within the panel.

[12] = biological target: T3, Endothelin-1 receptor, EDNRA (h) (Homo sapiens, UniProt P25101); settings: control endothelin-1
T3 sequence (P25101 21-427): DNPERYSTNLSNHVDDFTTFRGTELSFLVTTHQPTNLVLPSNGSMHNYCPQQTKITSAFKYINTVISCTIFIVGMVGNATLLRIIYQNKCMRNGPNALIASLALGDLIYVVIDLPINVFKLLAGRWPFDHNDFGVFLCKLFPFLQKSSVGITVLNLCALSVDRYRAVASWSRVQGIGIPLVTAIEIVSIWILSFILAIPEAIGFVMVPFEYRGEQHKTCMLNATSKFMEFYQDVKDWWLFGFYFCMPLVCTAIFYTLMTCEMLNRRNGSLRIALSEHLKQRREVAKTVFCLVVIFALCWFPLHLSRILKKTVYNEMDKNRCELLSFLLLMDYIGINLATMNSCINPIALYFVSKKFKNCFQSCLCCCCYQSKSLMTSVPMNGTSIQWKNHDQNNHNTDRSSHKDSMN

[13] = biological target: Vasopressin V1a receptor, AVPR1A (h) (Homo sapiens, UniProt P37288); experiment: IPP AVPR1A binding (agonist radioligand); settings: ligand/control [d(CH2)5 1,Tyr(Me)2]-AVP
[14] = biological target: Acetylcholinesterase, ACHE (h) (Homo sapiens, UniProt P22303); format: biochemical; settings: control galanthamine
Tubulin (r) = experiment: IPP Tubulin binding; set-up: species or system rat
[15] = biological target: Potassium voltage-gated channel subfamily H member 2 hERG, KCNH2 (h) (Homo sapiens, UniProt Q12809)
[16] = 10 uM, ligand/control Colchicine
[17] = 100 uM, * denotes assay interference (2-Amino-6-chloro-4-nitrophenol, HC Red 3)

Sequence of Vasopressin V1a receptor, AVPR1A (h) (P37288 whole entry): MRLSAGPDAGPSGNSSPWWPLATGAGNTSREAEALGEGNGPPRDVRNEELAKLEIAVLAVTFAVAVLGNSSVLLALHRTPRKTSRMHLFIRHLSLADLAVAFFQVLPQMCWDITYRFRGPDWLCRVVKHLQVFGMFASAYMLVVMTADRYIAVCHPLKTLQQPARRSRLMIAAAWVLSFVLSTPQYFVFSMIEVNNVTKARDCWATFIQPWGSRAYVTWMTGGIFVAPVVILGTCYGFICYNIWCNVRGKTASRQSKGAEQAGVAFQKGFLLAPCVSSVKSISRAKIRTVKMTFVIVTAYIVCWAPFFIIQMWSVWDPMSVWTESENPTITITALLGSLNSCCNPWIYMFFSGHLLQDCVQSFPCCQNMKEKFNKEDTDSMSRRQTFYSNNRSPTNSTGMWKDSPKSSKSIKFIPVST
Sequence of Potassium voltage-gated channel subfamily H member 2 hERG, KCNH2 (h) (Q12809 whole entry): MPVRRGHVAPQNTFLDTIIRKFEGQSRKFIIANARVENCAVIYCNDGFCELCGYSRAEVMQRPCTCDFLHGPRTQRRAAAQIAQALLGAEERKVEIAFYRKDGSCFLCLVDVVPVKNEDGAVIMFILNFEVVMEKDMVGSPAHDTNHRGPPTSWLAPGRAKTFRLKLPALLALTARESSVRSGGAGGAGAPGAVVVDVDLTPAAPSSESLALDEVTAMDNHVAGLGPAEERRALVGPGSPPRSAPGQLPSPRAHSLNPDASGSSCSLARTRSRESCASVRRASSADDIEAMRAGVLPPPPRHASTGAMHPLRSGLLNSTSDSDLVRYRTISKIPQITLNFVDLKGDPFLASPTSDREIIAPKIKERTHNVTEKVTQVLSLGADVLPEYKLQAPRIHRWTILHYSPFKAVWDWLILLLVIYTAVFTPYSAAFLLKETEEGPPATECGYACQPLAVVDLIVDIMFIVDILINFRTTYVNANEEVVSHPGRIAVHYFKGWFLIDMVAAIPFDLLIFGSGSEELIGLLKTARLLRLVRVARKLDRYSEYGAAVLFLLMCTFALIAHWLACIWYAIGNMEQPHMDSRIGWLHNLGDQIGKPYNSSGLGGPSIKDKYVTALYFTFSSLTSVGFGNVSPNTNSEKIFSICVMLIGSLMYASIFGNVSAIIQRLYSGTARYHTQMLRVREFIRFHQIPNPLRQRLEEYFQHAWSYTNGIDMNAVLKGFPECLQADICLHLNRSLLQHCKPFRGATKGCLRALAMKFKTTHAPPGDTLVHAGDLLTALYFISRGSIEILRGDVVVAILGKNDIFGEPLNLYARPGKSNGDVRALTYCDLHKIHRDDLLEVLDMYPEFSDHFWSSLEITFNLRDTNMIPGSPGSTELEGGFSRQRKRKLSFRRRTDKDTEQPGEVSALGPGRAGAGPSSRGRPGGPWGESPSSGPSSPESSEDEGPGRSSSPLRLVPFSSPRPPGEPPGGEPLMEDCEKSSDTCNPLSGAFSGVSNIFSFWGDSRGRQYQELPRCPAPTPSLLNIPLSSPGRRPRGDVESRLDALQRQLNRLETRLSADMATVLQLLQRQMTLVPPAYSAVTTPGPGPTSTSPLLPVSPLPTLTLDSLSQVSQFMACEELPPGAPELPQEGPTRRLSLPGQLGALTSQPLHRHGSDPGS
Sequence of cAMP-specific 3',5'-cyclic phosphodiesterase 4D, PDE4D (h) (Q08499 whole entry): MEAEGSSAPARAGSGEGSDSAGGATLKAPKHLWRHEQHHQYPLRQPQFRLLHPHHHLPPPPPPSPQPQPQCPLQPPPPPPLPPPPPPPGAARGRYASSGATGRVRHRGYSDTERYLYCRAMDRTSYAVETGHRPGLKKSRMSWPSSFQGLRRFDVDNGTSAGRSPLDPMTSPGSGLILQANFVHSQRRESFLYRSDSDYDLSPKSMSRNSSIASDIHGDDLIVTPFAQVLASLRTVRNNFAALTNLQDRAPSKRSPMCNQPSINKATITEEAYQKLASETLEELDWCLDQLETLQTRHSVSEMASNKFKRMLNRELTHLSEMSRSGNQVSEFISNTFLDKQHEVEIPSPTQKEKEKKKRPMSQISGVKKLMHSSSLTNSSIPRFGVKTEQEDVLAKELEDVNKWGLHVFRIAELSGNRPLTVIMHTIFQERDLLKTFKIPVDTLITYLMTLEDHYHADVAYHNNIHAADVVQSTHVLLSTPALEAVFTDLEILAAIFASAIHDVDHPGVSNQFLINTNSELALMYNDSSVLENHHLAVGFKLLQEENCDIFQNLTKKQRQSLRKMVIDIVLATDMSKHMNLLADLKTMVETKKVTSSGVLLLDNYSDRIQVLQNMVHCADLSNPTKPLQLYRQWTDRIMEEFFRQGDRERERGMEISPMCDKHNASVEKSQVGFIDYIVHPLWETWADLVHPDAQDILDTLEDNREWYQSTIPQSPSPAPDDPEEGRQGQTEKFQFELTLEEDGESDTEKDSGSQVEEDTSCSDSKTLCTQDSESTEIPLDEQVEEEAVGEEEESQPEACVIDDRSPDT
Sequence of Beta-1 adrenergic receptor, ADRB1 (h) (P08588 whole entry): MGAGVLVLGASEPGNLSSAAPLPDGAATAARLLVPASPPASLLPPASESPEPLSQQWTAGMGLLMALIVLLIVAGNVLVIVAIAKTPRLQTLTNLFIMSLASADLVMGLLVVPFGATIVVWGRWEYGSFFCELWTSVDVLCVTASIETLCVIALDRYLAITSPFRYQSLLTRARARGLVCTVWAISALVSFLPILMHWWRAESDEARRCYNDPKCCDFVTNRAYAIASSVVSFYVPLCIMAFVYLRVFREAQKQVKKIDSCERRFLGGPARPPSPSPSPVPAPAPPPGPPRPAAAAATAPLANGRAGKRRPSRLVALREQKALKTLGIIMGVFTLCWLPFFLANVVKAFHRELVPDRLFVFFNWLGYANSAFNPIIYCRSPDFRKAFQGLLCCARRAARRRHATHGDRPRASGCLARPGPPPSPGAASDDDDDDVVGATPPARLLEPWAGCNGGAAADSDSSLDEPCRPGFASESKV
Sequence of Cannabinoid receptor 1, CNR1 (h) (P21554 whole entry): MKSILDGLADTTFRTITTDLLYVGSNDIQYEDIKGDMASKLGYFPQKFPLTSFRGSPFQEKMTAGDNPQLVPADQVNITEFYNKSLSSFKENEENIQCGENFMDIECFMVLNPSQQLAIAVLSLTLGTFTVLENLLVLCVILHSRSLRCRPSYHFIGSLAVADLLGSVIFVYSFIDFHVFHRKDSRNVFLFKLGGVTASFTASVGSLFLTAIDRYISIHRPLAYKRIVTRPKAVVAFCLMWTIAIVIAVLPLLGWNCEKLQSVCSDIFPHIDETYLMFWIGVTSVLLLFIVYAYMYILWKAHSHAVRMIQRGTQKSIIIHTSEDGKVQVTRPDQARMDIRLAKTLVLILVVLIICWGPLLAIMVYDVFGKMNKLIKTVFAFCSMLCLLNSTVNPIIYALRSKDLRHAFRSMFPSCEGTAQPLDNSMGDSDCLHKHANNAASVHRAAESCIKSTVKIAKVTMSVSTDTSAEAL
Sequence of cGMP-inhibited 3',5'-cyclic phosphodiesterase A, PDE3A (h) (Q14432 whole entry): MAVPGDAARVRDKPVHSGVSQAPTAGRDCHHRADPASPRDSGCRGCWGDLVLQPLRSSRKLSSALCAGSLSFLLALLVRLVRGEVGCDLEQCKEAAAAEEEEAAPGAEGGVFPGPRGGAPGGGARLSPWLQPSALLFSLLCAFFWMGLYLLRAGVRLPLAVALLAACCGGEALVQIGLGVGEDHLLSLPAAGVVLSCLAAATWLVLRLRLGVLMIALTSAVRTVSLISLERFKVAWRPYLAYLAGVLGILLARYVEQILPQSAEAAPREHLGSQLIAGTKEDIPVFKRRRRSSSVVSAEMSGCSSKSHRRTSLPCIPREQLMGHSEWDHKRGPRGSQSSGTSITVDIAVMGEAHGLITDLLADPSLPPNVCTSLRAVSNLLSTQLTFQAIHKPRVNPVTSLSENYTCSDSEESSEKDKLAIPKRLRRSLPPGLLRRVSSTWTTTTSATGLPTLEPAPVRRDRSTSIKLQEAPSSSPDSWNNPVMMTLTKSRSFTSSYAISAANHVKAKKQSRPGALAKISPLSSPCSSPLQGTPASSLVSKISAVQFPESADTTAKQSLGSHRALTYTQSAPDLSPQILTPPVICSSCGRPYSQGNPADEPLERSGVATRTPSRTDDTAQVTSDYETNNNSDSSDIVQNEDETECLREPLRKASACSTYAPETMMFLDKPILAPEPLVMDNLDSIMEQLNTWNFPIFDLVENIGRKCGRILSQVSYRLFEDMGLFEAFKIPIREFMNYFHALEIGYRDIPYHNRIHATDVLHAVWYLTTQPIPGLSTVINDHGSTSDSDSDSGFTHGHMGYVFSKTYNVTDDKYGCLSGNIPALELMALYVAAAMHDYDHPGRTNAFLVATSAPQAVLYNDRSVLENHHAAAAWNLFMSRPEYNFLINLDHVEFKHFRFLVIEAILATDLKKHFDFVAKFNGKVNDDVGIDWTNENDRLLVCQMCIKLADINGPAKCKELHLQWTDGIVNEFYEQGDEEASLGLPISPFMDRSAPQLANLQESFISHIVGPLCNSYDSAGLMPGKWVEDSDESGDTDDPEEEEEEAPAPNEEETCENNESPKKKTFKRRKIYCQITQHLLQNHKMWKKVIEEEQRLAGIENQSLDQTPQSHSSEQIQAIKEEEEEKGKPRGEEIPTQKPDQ
Sequence of Kappa-type opioid receptor OPRK1 (h) (P41145 whole entry): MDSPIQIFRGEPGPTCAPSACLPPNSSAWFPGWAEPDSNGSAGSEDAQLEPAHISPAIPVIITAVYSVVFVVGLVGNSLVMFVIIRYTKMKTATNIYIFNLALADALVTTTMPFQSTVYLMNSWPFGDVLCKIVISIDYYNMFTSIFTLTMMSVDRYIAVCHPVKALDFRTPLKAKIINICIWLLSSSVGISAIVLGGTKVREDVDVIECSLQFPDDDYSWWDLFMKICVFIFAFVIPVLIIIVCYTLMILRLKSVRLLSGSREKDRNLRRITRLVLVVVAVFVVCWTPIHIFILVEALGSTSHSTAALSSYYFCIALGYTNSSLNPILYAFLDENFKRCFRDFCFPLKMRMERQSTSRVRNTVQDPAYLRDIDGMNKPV

Molecule	IPP screening %, Coactivator recruitment ([1]; 10 uM) [%]	Specific binding ([2]; IPP screening at 10 uM) [%]	Enzymatic activity ([3]; IPP screening at 10 uM) [%]	pod_httr_bifrost PoD (HepaRG cells) [µM]	podl_path_minbmd PoD (HepaRG cells) [µM]	Specific binding ([4]; IPP screening at 10 uM) [%]	Enzymatic activity ([5]; IPP screening at 10 uM) [%]	IPP screening %, Coactivator recruitment ([6]; 10 uM) [%]	Enzymatic activity ([7]; IPP screening at 10 uM) [%]	Specific binding ([8]; IPP screening at 10 uM) [%]	Enzymatic activity [9] [%]	IPP screening %, Enzymatic activity [10] [%]	IPP screening %, Specific binding [11] [%]	pod_cell_stress PoD (HepG2 cells; HepG2, cell stress panel PoD) [µM]	Specific binding ([12]; IPP screening at 10 uM) [%]	IPP screening %, Specific binding ([13]; 10 uM) [%]	Enzymatic activity ([14]; IPP screening at 10 uM) [%]	IPP screening %, Specific binding (Tubulin (r); [16]) [%]	other results
CCOP(=S)(OCC)Oc1nc(Cl)c(Cl)cc1Cl [Chlorpyrifos, O,O-Diethyl O-(3,5,6-trichloropyridin-2-yl) phosphorothioate]	9.0	27.7	36.9	0.07063	1.957	5.3	2.7	-1.0	51.8	26.0	-7.4	5.1	5.8	0.578	0.1	-6.8	-10.5	-20.0	
CC(C)(C)c1ccc(CCOc2ncnc3ccccc23)cc1 [Fenazaquin, 4-[2-(4-tert-Butylphenyl)ethoxy]quinazoline]	4.0	56.7	32.4	0.006087	0.07466	16.5	-4.7	-2.0	14.7	57.0	3.3	-0.2	11.5	0.0001306	2.7	-5.5	-0.7	-2.0	IPP screening %, Specific binding ([15]; 10 uM, [3H] Dofetilide, control Terfenadine): 34.9%; Bioactivity Observations: cell stress panel (HepG2 cells): Mechanism of action is insect-specific. Cell stress panel PoD is extrapolated beyond lowest concentration for leading biomarkers which suggests the concentration range tested was not low enough.
mixture of 2- and 3-tert-butyl-4-methoxyphenol [Butylated Hydroxyanisole]		13.5	22.6			6.3	46.1		12.2	-27.5	14.6	-0.4	-7.7		-10.4	15.2	5.9		pod_cell_stress PoD (HepG2 cells): 32.7666 µM; IPP screening %, Specific binding (Tubulin (r)): -5.0%
CC1(C)O[C@@H]2[C@@H](CO[C@@]3(COS(N)(=O)=O)OC(C)(C)O[C@@H]23)O1 [Topiramate, [(3aS,5aR,8aR,8bS)-2,2,7,7-Tetramethyltetrahydro-2H,3aH,7H-bis[1,3]dioxolo[4,5-b:4',5'-d]pyran-3a-yl]methyl sulfamate (non-preferred name)]				28.4144	48.7054									140.54					IPP screening %, Coactivator recruitment [1, 17]: -1.0%; Specific binding ([2]; IPP screening at 100 uM): 3.7%; Enzymatic activity ([3]; IPP screening at 100 uM): 12%; Specific binding ([4]; IPP screening at 100 uM): -2.9%; Enzymatic activity ([5]; IPP screening at 100 uM): -1.5%; IPP screening %, Coactivator recruitment [6, 17]: -1.0%; Enzymatic activity ([7]; IPP screening at 100 uM): 27.9%; IPP screening %, Specific binding ([15]; human): -13.1%; Specific binding ([8]; IPP screening at 100 uM): 10.5%; Specific binding ([12]; IPP screening at 100 uM): 5.1%; IPP screening %, Specific binding ([13]; 100 uM): 7.2%; Enzymatic activity ([14]; IPP screening at 100 uM): -0.1%; IPP screening %, Specific binding (Tubulin (r); 100 uM, ligand/control Colchicine): 5%
(4S,4aR,5S,5aR,6S,12aS)-4-(Dimethylamino)-3,5,6,10,12,12a-hexahydroxy-6-methyl-1,11-dioxo-1,4,4a,5,5a,6,11,12a-octahydrotetracene-2-carboxamide--hydrogen chloride (1/1) [Oxytetracycline hydrochloride]		7.3	30.0			7.5	-5.1		9.6	25.7	-1.2	0.7			-1.2	1.6		-3.0	IPP screening %, Specific binding [15]: -10.2%
